The text below walks through data of the Kinase Knowledgebase extract (Sharma et al. 2016).

The target of the test is EGFR (UniProt P00533).
Chain of EGFR (P00533 whole entry, looked up): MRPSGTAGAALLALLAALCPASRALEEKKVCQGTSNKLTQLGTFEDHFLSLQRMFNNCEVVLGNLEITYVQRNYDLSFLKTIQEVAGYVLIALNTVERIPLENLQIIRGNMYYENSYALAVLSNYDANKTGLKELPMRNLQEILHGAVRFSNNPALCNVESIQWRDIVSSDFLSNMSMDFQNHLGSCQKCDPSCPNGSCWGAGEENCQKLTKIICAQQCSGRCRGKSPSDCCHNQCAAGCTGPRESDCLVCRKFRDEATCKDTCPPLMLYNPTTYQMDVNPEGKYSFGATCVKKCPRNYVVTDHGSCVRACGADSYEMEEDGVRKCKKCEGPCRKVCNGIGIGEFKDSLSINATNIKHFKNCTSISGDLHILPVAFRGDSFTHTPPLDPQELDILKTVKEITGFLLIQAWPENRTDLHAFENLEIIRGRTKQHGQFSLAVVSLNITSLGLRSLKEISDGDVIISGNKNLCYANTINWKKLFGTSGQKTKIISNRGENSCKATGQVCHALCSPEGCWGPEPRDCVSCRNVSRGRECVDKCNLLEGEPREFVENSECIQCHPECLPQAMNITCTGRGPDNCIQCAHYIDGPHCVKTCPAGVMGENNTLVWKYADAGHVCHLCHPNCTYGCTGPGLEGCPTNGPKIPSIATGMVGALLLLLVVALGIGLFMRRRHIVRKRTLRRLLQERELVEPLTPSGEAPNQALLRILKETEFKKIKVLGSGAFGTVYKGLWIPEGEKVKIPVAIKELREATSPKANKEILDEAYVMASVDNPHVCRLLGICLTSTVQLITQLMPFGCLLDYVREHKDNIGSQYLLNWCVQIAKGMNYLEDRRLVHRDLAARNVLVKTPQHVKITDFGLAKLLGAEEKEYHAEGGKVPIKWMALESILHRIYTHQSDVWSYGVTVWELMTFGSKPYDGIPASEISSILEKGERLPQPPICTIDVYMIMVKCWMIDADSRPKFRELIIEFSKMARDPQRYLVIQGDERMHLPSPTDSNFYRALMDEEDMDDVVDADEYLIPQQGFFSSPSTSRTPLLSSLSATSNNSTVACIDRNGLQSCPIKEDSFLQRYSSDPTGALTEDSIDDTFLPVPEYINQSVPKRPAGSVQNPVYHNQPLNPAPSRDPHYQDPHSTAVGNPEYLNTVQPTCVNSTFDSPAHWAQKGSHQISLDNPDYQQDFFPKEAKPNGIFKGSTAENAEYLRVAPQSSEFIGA
Molecule `NCCc1cc(O)c(O)c(SC[C@H](N)C(=O)N[C@@H](CCC(=O)O)C(=O)O)c1` gave an inhibition of 9.3.
For the molecule `NCCC(=O)NCCc1cc(O)c(O)c(SC[C@H](N)C(=O)NCC(=O)O)c1`, the inhibition is 7.9.
With `N[C@@H](CSc1cc(C[C@H](N)C(=O)O)cc(O)c1O)C(=O)O` the figure was 2.9; with `NCCC(=O)NCCc1cc(O)c(O)c(SC[C@H](N)C(=O)N[C@@H](CCC(=O)O)C(=O)O)c1`, 52.1; with `N[C@@H](Cc1cc(O)c(O)c(Sc2nc3ccccc3[nH]2)c1)C(=O)O`, 11.7.
`NCCc1cc(O)c(O)c(Sc2nc3ccccc3[nH]2)c1` displayed an inhibition of 15.1.
With `N[C@@H](Cc1cc(O)c(O)c(Sc2nc[nH]n2)c1)C(=O)O` the figure was 17.
Regarding `NCCc1cc(O)c(O)c(SC[C@H](N)C(=O)NCC(=O)O)c1`, the inhibition stood at 19.6.
For `NCCC(=O)NCCc1cc(O)c(O)c(SC[C@H](NC(=O)CC[C@H](N)C(=O)O)C(=O)NCC(=O)O)c1`, the inhibition is 4.9.
The value for `NCCC(=O)NCCc1cc(O)c(O)c(SC[C@H](N)C(=O)O)c1` was 12.1; that for `NCCc1cc(O)c(O)c(Sc2nc[nH]n2)c1` was 15.9.
With `NCCC(=O)N[C@@H](Cc1cc(O)c(O)c(SC[C@H](N)C(=O)NCC(=O)O)c1)C(=O)O` the figure was 0; with `NCCC(=O)N[C@@H](Cc1cc(O)c(O)c(SC[C@H](NC(=O)CC[C@H](N)C(=O)O)C(=O)NCC(=O)O)c1)C(=O)O`, 2.2.
The molecule `NCCc1cc(O)c(O)c(SC[C@H](N)C(=O)O)c1` had an inhibition of 16.3.
With `N[C@@H](Cc1cc(O)c(O)c(SC[C@H](N)C(=O)N[C@@H](CCC(=O)O)C(=O)O)c1)C(=O)O` the figure was 0.
Turning to `N[C@@H](Cc1cc(O)c(O)c(SC[C@H](N)C(=O)NCC(=O)O)c1)C(=O)O`, the inhibition was found to be 2.5.
Turning to `NCCC(=O)N[C@@H](Cc1cc(O)c(O)c(SC[C@H](N)C(=O)N[C@@H](CCC(=O)O)C(=O)O)c1)C(=O)O`, the inhibition is 0.
